Columns and labels:
[1] = two compartment model, nonlinear regression fit
in vivo = details: Sprague Dawley, rat, intravenous, 10 mg DTX equivalent/kg
[2] = man and rodents; cited from earlier work
[3] = rat, in vivo
[4] = rat, in vivo; remark: listed apart in the source
[5] = rat, in vivo; remark: listed apart in the source

CLD (distribution clearance) [1] [mL/h]	VC (volume of the central compartment) [1] [mL]	VP (volume of the peripheral compartment) [1] [mL]	Vmax (nonlinear clearance, all remaining routes) [1] [ng/h]	clearance (in vivo; plasma and bile) [mL/min]	Km (in vivo; plasma) [µg/mL]	cumulative 24h urinary DTX excretion [3] [% injected dose]	tissue distribution phase half-life (t1/2) [4]	CL ([4]; iv) [mL/min/kg]	V (apparent volume of distribution) ([4]; iv) [L/kg]	t1/2 (terminal elimination half-life) ([4]; iv) [h]	percentage of the total 8h biliary metabolites excreted as HDTX (%HDTX) [5] [%]	Molecule	renal clearance contribution to DTX clearance [2] [%]
2202	760	5811	391464	3.53	0.124							CC(=O)O[C@@]12CO[C@@H]1C[C@H](O)[C@@]1(C)C(=O)[C@H](O)C3=C(C)[C@@H](OC(=O)[C@H](O)[C@@H](NC(=O)OC(C)(C)C)c4ccccc4)C[C@@](O)([C@@H](OC(=O)c4ccccc4)[C@H]21)C3(C)C [DTX, Docetaxel]	< 10
						2.36 ± 0.98	~ 30 min	86.7	3.401	3	82±12	Taxotere	
